Experimental data from patent US8778982B2, “Synergistic microbicidal compositions” (Rohm and Haas Company, priority 2007, dated 2014).
Read-outs that look alike come from different tables or passages of the source. Values belong to the compound of their own block, whether it stands above or below them.

Columns and labels:
Type in all cases: cell-based
[1] = test system: Candida albicans (C. albicans—ATCC 10231); experiment: Synergy test, microtiter plate high resolution MIC assay, PDB medium, yeast; details: for MIC: Candida albicans
Excerpt: (§1) One measure of synergism is the industrially accepted method described by Kull, F. C.; Eisman, P. C.; Sylwestrowicz, H. D. and Mayer, R. L., in Applied Microbiology 9:538-541 (1961), using the ratio determined by the formula: Qa/QA+Qb/QB=Synergy Index(“SI”) wherein: • QA=concentration of compound A (first component) in ppm, acting alone, which produced an end point (MIC of Compound A). • Qa=concentration of compound A in ppm, in the mixture, which produced an end point. • QB=concentration of compound B (second component) in ppm, acting alone, which produced an end point (MIC of Compound B). • Qb=concentration of compound B in ppm, in the mixture, which produced an end point.
(§2) When the sum of Qa/QA and Qb/QB is greater than one, antagonism is indicated. […] The lower the SI, the greater is the synergy shown by that particular mixture. The minimum inhibitory concentration (MIC) of a microbicide is the lowest concentration tested under a specific set of conditions that prevents the growth of the tested microorganisms.
(§3) Synergy tests were conducted using standard microtiter plate assays with media designed for optimal growth of the test microorganism. Minimal salt medium supplemented with 0.2% glucose and 0.1% yeast extract (M9GY medium) was used for testing bacteria; Potato Dextrose Broth (PDB medium) was used for testing yeast and mold. In this method, a wide range of combinations of microbicides and other personal care raw materials was tested by conducting high resolution MIC assays in the presence of various concentrations of CMIT/MIT, MIT, or BIT. High resolution MICs were determined by adding varying amounts of microbicide to one column of a microtitre plate and doing subsequent […] dilutions using an automated liquid handling system to obtain a series of endpoints ranging from 2 ppm to 10,000 ppm active ingredient.
(§4) The synergy of the combinations of the present invention was determined against a bacterium, Escherichia coli (E. coli—ATCC #8739), a yeast, Candida albicans (C. albicans—ATCC 10231), and a mold, Aspergillus niger (A. niger—ATCC 16404). The bacteria were used at a concentration of about 5×10^6 bacteria per mL and the yeast and mold at 5×10^5 fungi per mL. These microorganisms are representative of natural contaminants in many consumer and industrial applications. […] (yeast and mold) or 30° C. (bacteria).

[2] = test system: Aspergillus niger (A. niger—ATCC 16404); experiment: Synergy test, microtiter plate high resolution MIC assay, PDB medium, mold; details: for MIC: Aspergillus niger
Excerpt: as §1, §2, §3, §4

[3] = test system: Escherichia coli (E. coli—ATCC #8739); experiment: Synergy test, microtiter plate high resolution MIC assay, M9GY medium, bacterium; details: for MIC: Escherichia coli
Excerpt: as §1, §2, §3, §4

[4] = ATCC10231, 24 h, read-out: MIC of the component acting alone (QA or QB)
[5] = ATCC16404, 72 h, read-out: MIC of the component acting alone (QA or QB)
[6] = ATCC8739, 24 h, read-out: MIC of the component acting alone (QA or QB)

Compound: CCCCCCCCCCCC(=O)OCC(O)CO (stereo not shown) [Glycerol monolaurate]
Synergy Index (SI) = Qa/QA+Qb/QB ([1]; C. albicans 10231, PDB, 1 day): 1.00
SI (synergy index) ([1]; C. albicans 10231, PDB, 6 days): 1.00
Synergy Index (SI) = Qa/QA+Qb/QB ([1]; C. albicans 10231, PDB, 6 days): 1.00
MIC [1, 4]: 20 mg/mL
MIC ([1]; ATCC10231, 144 h, read-out: MIC of the component acting alone (QA or QB)): 20 mg/mL
MIC ([1]; ATCC10231, 144 h, read-out: MIC of the component acting alone (Qa or Qb with the other component at 0)): 20 mg/mL
Synergy Index (SI) = Qa/QA+Qb/QB ([2]; A. niger 16404, PDB, 3 days): 1.00
SI (synergy index) ([2]; A. niger 16404, PDB, 10 days): 1.00
Synergy Index (SI) = Qa/QA+Qb/QB ([2]; A. niger 16404, PDB, 10 days): 1.00
MIC [2, 5]: 20 mg/mL
MIC ([2]; ATCC16404, 240 h, read-out: MIC of the component acting alone (QA or QB)): 20 mg/mL
MIC ([2]; ATCC16404, 240 h, read-out: MIC of the component acting alone (Qa or Qb with the other component at 0)): 20 mg/mL
SI (synergy index) ([3]; E. coli 8739, M9GY, 1 day): 1.00
Synergy Index (SI) = Qa/QA+Qb/QB ([3]; E. coli 8739, M9GY, 1 day): 1.00
MIC [3, 6]: 20 mg/mL
MIC ([3]; ATCC8739, 24 h, read-out: MIC of the component acting alone (Qa or Qb with the other component at 0)): 20 mg/mL

MIC [1, 4]: 2 mg/mL
MIC [2, 5]: 2 mg/mL
MIC [3, 6]: 3 mg/mL
Compound: CCCCC(CC)COCC(O)CO (stereo not shown) [Ethylhexylglycerin, 3-[(2-ethylhexyl)oxy]-1,2propanediol]
Synergy Index (SI) = Qa/QA+Qb/QB ([1]; C. albicans 10231, PDB, 1 day): 1.00
SI ([1]; C. albicans 10231 - PDB (6 days), A = MIT, B = Ethylhexylglycerin): 1.00
Qb ([1]; C. albicans 10231 - PDB (6 days), A = MIT, B = Ethylhexylglycerin, B alone where Qa = 0): 2000 ppm
Synergy Index (SI) = Qa/QA+Qb/QB ([2]; A. niger 16404, PDB, 3 days): 1.00
SI ([2]; A. niger 16404 - PDB (10 days), A = MIT, B = Ethylhexylglycerin): 1.00
Qb ([2]; A. niger 16404 - PDB (10 days), A = MIT, B = Ethylhexylglycerin, B alone where Qa = 0): 2000 ppm
Synergy Index (SI) = Qa/QA+Qb/QB ([3]; E. coli 8739, M9GY, 1 day): 1.00
SI ([3]; E. coli 8739 - M9GY (6 days), A = MIT, B = Ethylhexylglycerin): 1.00
Qb ([3]; E. coli 8739 - M9GY (6 days), A = MIT, B = Ethylhexylglycerin, B alone where Qa = 0): 3000 ppm

MIC ([1]; ATCC10231, 24 h, C. albicans 10231, PDB, 1 day, 25° C., read-out: MIC of the component acting alone (QA or QB)): 3 mg/mL
MIC ([2]; ATCC16404, 72 h, A. niger 16404, PDB, 3 days, 25° C., read-out: MIC of the component acting alone (QA or QB)): 3 mg/mL
MIC ([3]; ATCC8739, 48 h, E. coli 8739, M9GY, 2 days, 30° C., read-out: MIC of the component acting alone (QA or QB)): 2 mg/mL
Compound: CCCCCCC(O)CO (stereo not shown) [Caprylyl glycol, 1,2-octanediol]
Synergy Index (SI) = Qa/QA+Qb/QB ([1]; C. albicans 10231, PDB, 1 day): 1.00
Synergy Index (SI) = Qa/QA+Qb/QB ([2]; A. niger 16404, PDB, 3 days): 1.00
Synergy Index (SI) = Qa/QA+Qb/QB ([3]; E. coli 8739, M9GY, 2 days): 1.00
